Experimental data published in patent US9682931B2, “Aryloyl(oxy or amino)pentafluorosulfanylbenzene compound, pharmaceutically acceptable salt thereof, and prodrugs thereof” (UBE INDUSTRIES, LTD., priority 2013, dated 2017).

Tests used:
Topoisomerase II = molecular target: T1, Topoisomerase II (Homo sapiens, UniProt P11388); test: Topoisomerase II assay; type: biochemical; design: key to Inhibitory activity Topoisomerase II: ∘: Inhibitory activity is present; Δ: Weak inhibitory activity is present; x: No inhibitory activity is present
T1 construct: purchased
Method: The inhibitory action of a test substance (Compound 3) on Topoisomerase I and Topoisomerase II was examined.
2. Topoisomerase II Assay
Assay was performed in accordance with the attachment to Topoisomerase II Assay Kit, as follows.
(1) 10×Topo II Incomplete Assay A and 10×ATP Buffer B were mixed in equal amounts to prepare 5× Complete Assay Buffer (prepared when used).
(2) Assay solution was prepared in accordance with the following table.
(3) Incubated at 37° C. for 30 minutes (4) 5 μl of 5× Stop Buffer/gel loading dye was added (5) 1 μl of 1.3 mg/mL protease K solution (prepared with distilled water) was added (final concentration of protease K is 50 μg/mL) (6) Incubated at 37° C. for 20 minute (7) Total amount was applied to 1% agarose gel (containing EtBr) and analyzed by electrophoresis using a single concentration TAE buffer (prepared with distilled water). (8) After electrophoresis, the 1% agarose gel was stained with 0.5 μg/mL EtBr solution (prepared with single concentration TAE buffer) (9) Irradiated with UV ray and photographed.

RBL-2H3 cells = test: Degranulation suppression test of RBL-2H3 cells (β-hexosaminidase release, IgE stimulation); type: cell-based, Rat; details: for Degranulation ratio: relative to untreated control, n = 4
Method: 1. Degranulation Suppression Test of RBL-2H3 Cells
As to Compound 3, the granule release (degranulation) suppression action on RBL-2H3 cell by IgE stimulation, which is a cell model for an allergic reaction, was examined.
A test substance (50 mg) was dissolved by adding 1 mL of 50 vol % ethanol to the test substance to obtain a concentration of 50 mg/mL. The solution thus obtained was diluted with a buffer solution. […] The concentrations were all indicated as the concentrations in cell supernatants.
β-Hexosaminidase abundantly present in granules of RBL-2H3 cells was used as the index of degranulation caused by IgE stimulation, and p-nitrophenol produced by the reaction with a substrate was measured by colorimetric assay. The activity values of β-hexosaminidase present within cells and released in the culture supernatant were determined to obtain the release rate of β-hexosaminidase, and then, a degranulation rate relative to an untreated control was obtained. Based on this, degranulation inhibitory action was evaluated.
Main test conditions and outline of the operation will be described below.
Cell: Rat basophil leukemic cell, RBL-2H3 [Human Sciences Foundation]
Stimulation of degranulation: Anti-DNP-IgE antibody, DNP labeled albumin [Sigma-Aldrich Corporation]
Degranulation Index: 3-Hexosaminidase activity
Measurement apparatus: Microplate reader, SpectraMax M2c • [Molecular Devices Corporation]
In this test, an action to suppress granule release (degranulation) in mast cells caused by an IgE antigen stimulation is evaluated. Thus, the smaller the degranulation ratio is, the stronger the effect is […]

[1] = test system: caspase 3/7 in A549 cells (human lung cancer, adenocarcinoma); test: Test of inducing apoptosis of A549 cells (caspase 3/7 activity); type: cell-based; details: 5 hours
Method: (Test of Inducing Apoptosis of A549 Cells (Human Lung Cancer, Adenocarcinoma))
To evaluate apoptosis induction of a sample (Compound 3), the activity of caspase 3/7 was measured.
1. Measurement Reagents, Equipment and Instruments
APO-ONE Homogeneous Caspase-3/7 Assay (G7790, Lot No. 314408; Promega)
Fluorescence plate reader (SpectraMax GEMINI EM; Molecular Devices)
Cells: A549 cells (obtained from the Research Resource Bank of the Human Sciences Foundation)
Medium: 10% FBS and 0.1 mmol/L Non-Essential Amino Acids Solution-containing MEM medium
A 1 mmol/L solution prepared with DMSO was prepared with a medium so as to have a final concentration (the final concentration of DMSO was set to be 0.1%).
A sample was weighed and a medium was added so as to obtain 500 μg/mL. While warming at 37° C., sonication was performed for 60 minutes to make dissolution. Filtration was performed by a 0.22 μm-filter. The 500 μg/mL solution was subjected to serial dilution in a common ratio of 10 with the medium to prepare 50, 5, 0.5, 0.05 and 0.005 μg/mL.
(1) (The day before test)
On a 96-well plate, A549 cells were seeded in a ratio of 10000 cells/100 μL/well. […]
(4) Reaction was performed at room temperature while blocking light. Two hours later, fluorescence was measured (excitation wavelength: 499 nm, fluorescence wavelength: 521 nm)

T1 sequence (P11388 whole entry): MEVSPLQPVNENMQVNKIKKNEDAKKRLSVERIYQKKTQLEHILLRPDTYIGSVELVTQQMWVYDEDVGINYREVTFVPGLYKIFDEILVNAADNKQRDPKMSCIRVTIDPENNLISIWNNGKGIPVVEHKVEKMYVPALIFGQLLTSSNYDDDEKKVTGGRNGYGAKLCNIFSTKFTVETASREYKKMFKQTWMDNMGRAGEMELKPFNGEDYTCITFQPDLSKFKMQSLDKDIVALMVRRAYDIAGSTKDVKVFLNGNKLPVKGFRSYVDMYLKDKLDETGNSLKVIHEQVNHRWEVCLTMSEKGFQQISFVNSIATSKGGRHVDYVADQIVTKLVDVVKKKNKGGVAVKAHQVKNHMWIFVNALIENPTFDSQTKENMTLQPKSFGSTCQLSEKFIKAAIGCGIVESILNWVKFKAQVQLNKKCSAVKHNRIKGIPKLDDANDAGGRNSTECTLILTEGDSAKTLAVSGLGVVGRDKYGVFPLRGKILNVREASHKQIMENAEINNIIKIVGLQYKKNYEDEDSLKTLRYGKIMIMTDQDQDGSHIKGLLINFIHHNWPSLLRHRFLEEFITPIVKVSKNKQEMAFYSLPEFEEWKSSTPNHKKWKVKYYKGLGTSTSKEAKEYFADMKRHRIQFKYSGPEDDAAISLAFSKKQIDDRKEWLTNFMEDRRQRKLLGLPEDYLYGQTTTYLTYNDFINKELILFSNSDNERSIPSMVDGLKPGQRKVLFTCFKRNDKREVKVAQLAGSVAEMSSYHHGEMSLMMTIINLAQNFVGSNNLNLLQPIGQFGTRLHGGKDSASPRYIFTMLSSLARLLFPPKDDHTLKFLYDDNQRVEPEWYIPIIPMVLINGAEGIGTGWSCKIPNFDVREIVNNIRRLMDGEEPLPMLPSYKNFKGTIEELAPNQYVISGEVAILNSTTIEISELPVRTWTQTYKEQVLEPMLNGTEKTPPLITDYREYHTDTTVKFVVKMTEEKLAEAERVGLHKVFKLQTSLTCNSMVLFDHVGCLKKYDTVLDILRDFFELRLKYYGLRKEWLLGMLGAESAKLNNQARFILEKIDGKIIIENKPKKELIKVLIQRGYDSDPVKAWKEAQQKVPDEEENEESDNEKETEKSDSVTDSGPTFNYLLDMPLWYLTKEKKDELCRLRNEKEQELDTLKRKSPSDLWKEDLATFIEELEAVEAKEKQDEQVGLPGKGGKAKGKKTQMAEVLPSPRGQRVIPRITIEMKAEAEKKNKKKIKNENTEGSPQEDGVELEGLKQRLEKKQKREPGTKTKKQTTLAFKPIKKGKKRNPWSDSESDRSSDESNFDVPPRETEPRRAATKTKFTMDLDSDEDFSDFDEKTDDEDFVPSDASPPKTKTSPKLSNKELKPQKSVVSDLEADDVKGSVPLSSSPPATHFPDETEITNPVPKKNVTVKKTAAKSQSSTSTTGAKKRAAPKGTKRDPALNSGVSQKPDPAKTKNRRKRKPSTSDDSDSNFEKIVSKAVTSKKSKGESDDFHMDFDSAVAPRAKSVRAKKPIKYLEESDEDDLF

O=C(Nc1ccc(S(F)(F)(F)(F)F)cc1)c1cc(O)c(O)c(O)c1 [Compound 3, 4-(3,4,5-trihydroxybenzoylamino)pentafluorosulfanylbenzene]
Topoisomerase II inhibitory activity (Topoisomerase II; 5, 50 and 500 μg/mL): inhibitory activity was observed
Inhibitory activity Topoisomerase II (Topoisomerase II; final concentration 0.5 μg/mL): x
Inhibitory activity Topoisomerase II (Topoisomerase II; final concentration 5 μg/mL): ∘
Inhibitory activity Topoisomerase II (Topoisomerase II; final concentration 50 μg/mL): ∘
Inhibitory activity Topoisomerase II (Topoisomerase II; final concentration 500 μg/mL): ∘
cytotoxicity (visual) (RBL-2H3 cells; RBL-2H3 cells, any concentration): not visually confirmed
Degranulation ratio (RBL-2H3 cells; sample 1 μg/mL): 91%
Degranulation ratio (RBL-2H3 cells; sample 10 μg/mL): 85%
Degranulation ratio (RBL-2H3 cells; sample 25 μg/mL): 73%
Degranulation ratio (RBL-2H3 cells; sample 50 μg/mL in cell supernatant): 35%
Degranulation ratio (RBL-2H3 cells; sample 100 μg/mL in cell supernatant): 19%
caspase 3/7 activity ([1]; 0.005 μg/mL to 5 μg/mL): high activity was observed
caspase 3/7 activity ([1]; all concentrations 0.005 μg/mL to 500 μg/mL): tends to enhance caspase 3/7 activity
